The values that follow come from ChEMBL document CHEMBL4184126, “Synthesis of novel 6-substituted amino-9-(β-d-ribofuranosyl)purine analogs and their bioactivities on human epithelial cancer cells” (Bioorg Med Chem Lett, 2018).

Some results are limits rather than exact numbers.

Assay type in all cases: functional, cell-based; call rule not given here
Test [1] relates to Huh-7. The test is described as follows: Antiproliferative activity against human HuH7 cells after 72 hrs by SRB assay. In general terms: The SRB assay estimates cell density from bound dye.
In test [2] the test system is HCT-116. Kind of test: Antiproliferative activity against human HCT116 cells after 72 hrs by SRB assay.
Test [3] has as its system MCF7. Kind of test: Antiproliferative activity against human MCF7 cells after 72 hrs by SRB assay.
The test system of test [4] is HepG2. Kind of test: Antiproliferative activity against human HepG2 cells after 72 hrs by SRB assay.
Test [5] concerns Mahlavu. The test is described as follows: Antiproliferative activity against human Mahlavu cells after 72 hrs by SRB assay.
Test [6] in a line: Antiproliferative activity against human FOCUS cells after 72 hrs by SRB assay.
Where [7] appears, read: Homo sapiens, Huh-7, 72 h, read-out: IC50.
[8] abbreviates: Homo sapiens, HCT-116, 72 h, read-out: IC50.
Setting [9] is: Homo sapiens, MCF7, 72 h, read-out: IC50.
The mark [10] stands for this setting: Homo sapiens, HepG2, 72 h, read-out: IC50.
[11] abbreviates: Homo sapiens, Mahlavu, 72 h, read-out: IC50.
The mark [12] stands for this setting: Homo sapiens, 72 h, read-out: IC50.

A word on the IC50: it is the concentration that gives 50% inhibition. As to `Nc1nc(N2CCN(c3ccc(F)cc3)CC2)c2ncn([C@@H]3O[C@H](CO)[C@@H](O)[C@H]3O)c2n1`, the 50% inhibitory concentration (IC50) in test [1] (setting [7]) was > 100 µM; in test [2] (setting [8]) it was 30 µM; in test [3] (mcf7), “Not Active”.
Turning to `Cc1ccc(N2CCN(c3nc(N)nc4c3ncn4[C@@H]3O[C@H](CO)[C@@H](O)[C@H]3O)CC2)cc1`, the concentration for half-maximal inhibition (IC50) entry in test [1] (huh-7), in test [2] (hct-116) and in test [3] (mcf7) was “Not Active” throughout.
On to `OC[C@H]1O[C@@H](n2cnc3c(N4CCN(c5ccc(C(F)(F)F)cc5)CC4)nc(Cl)nc32)[C@H](O)[C@@H]1O`, for which the IC50 in test [1] (setting [7]) was 1 to 2 µM; in test [2] (setting [8]), 1 µM; in test [3] (setting [9]), 4 µM; in test [4] (setting [10]), 3 µM; in test [5] (setting [11]), 3 µM; in test [6] (setting [12]), 1 µM.
Consider `CSc1ccc(Nc2ncnc3c2ncn3[C@@H]2O[C@H](CO)[C@@H](O)[C@H]2O)cc1`, for which the IC50 entry in test [1] (huh-7) is “Not Active”; in test [2] (setting [8]), > 100 µM; in test [3] (mcf7), “Not Active”.
Consider `Nc1nc(N2CCN(C(c3ccccc3)c3ccccc3)CC2)c2ncn([C@@H]3O[C@H](CO)[C@@H](O)[C@H]3O)c2n1`, for which the half-inhibitory concentration (IC50) worked out at 10 µM in test [1] (setting [7]); 20 µM in test [2] (setting [8]); 20 µM in test [3] (setting [9]); 20 µM in test [4] (setting [10]); 7 µM in test [5] (setting [11]); 20 µM in test [6] (setting [12]).
For `CC(C)c1ccc(Nc2ncnc3c2ncn3[C@@H]2O[C@H](CO)[C@@H](O)[C@H]2O)cc1`, the IC50 in test [1] (setting [7]) amounted to 60 µM; in test [2] (setting [8]), 10 µM; in test [3] (setting [9]), 50 µM; in test [4] (setting [10]) it was 40 µM; in test [5] (setting [11]), 40 µM; in test [6] (setting [12]), 20 µM.
Consider `OC[C@H]1O[C@@H](n2cnc3c(Nc4ccc(N5CCOCC5)cc4)ncnc32)[C@H](O)[C@@H]1O`, for which the 50% inhibitory concentration (IC50) entry in test [1] (huh-7) was “Not Active”; in test [2] (hct-116), “Not Active”; in test [3] (setting [9]), 80 µM.
In the case of `OC[C@H]1O[C@@H](n2cnc3c(N4CCN(C5CCCCC5)CC4)ncnc32)[C@H](O)[C@@H]1O`, the IC50 entry is “Not Active” in test [1] (huh-7), > 100 µM in test [2] (setting [8]) and “Not Active” in test [3] (mcf7).
`Cc1ccc(N2CCN(c3ncnc4c3ncn4[C@@H]3O[C@H](CO)[C@@H](O)[C@H]3O)CC2)cc1`: the concentration for half-maximal inhibition (IC50) result in test [1] (huh-7) is “Not Active”; in test [2] (setting [8]), 70 µM; in test [3] (setting [9]), > 100 µM; in test [4] (hepg2), “Not Active”; in test [5] (setting [11]) it was > 100 µM; in test [6] (setting [12]) it was 40 µM.
As to `CN(C)c1ccc(Nc2ncnc3c2ncn3[C@@H]2O[C@H](CO)[C@@H](O)[C@H]2O)cc1`, the IC50 in test [1] (setting [7]) was 80 µM; in test [2] (setting [8]) it was 40 µM; in test [3] (setting [9]) it was 30 µM; in test [4] (setting [10]), 30 µM; in test [5] (setting [11]), 30 µM; in test [6] (setting [12]) it was 20 µM.
Take `OC[C@H]1O[C@@H](n2cnc3c(NCCC4=CCCCC4)nc(Cl)nc32)[C@H](O)[C@@H]1O`: the half-maximal inhibitory concentration (IC50) in test [1] (setting [7]) turned out to be 20 µM; in test [2] (setting [8]), 90 µM; in test [3] (setting [9]), 30 µM; in test [4] (setting [10]), 40 µM; in test [5] (setting [11]) it was 30 µM; in test [6] (setting [12]), 50 µM.
Take `OC[C@H]1O[C@@H](n2cnc3c(N4CCN(c5ncccn5)CC4)ncnc32)[C@H](O)[C@@H]1O`: the IC50 entry in test [1] (huh-7) is “Not Active”; in test [2] (setting [8]), > 100 µM; in test [3] (setting [9]) it was 40 µM.
As for `OC[C@H]1O[C@@H](n2cnc3c(NCCC4=CCCCC4)ncnc32)[C@H](O)[C@@H]1O`, the half-inhibitory concentration (IC50) was > 100 µM in test [1] (setting [7]); 6 µM in test [2] (setting [8]); 3 µM in test [3] (setting [9]); 1 µM in test [4] (setting [10]); > 100 µM in test [5] (setting [11]); “Not Active” in test [6].
Turning to `Nc1nc(N2CCN(c3ccccc3)CC2)c2ncn([C@@H]3O[C@H](CO)[C@@H](O)[C@H]3O)c2n1`, the 50% inhibitory concentration (IC50) in test [1] (setting [7]) is 50 µM; in test [2] (setting [8]), 30 µM; in test [3] (mcf7) it was “Not Active”; in test [4] (setting [10]) it was > 100 µM; in test [5] (mahlavu), “Not Active”; in test [6] (setting [12]), 9 µM.
Take `Nc1nc(N2CCN(c3ncccn3)CC2)c2ncn([C@@H]3O[C@H](CO)[C@@H](O)[C@H]3O)c2n1`: the IC50 result in test [1] (huh-7), in test [2] (hct-116) and in test [3] (mcf7) was “Not Active” throughout.
For the compound `OC[C@H]1O[C@@H](n2cnc3c(NCCNc4ccccc4)ncnc32)[C@H](O)[C@@H]1O`, the concentration for half-maximal inhibition (IC50) entry was “Not Active” in test [1] (huh-7), 30 µM in test [2] (setting [8]) and > 100 µM in test [3] (setting [9]).
Consider `Nc1nc(Cl)nc2c1ncn2[C@H]1C[C@H](O)[C@@H](CO)O1` [CLADRIBINE], for which the IC50 in test [1] (setting [7]) was 0.4 to 0.9 µM; in test [2] (setting [8]), < 0.1 µM; in test [4] (setting [10]) it was 0.04 µM; in test [5] (setting [11]) it was 0.1 µM; in test [6] (setting [12]), 0.4 µM.
Regarding `Nc1nc(F)nc2c1ncn2[C@@H]1O[C@H](CO)[C@@H](O)[C@@H]1O` [FLUDARABINE], the concentration for half-maximal inhibition (IC50) was found to be 30 µM in test [1] (setting [7]); 8 µM in test [2] (setting [8]); 15 µM in test [3] (setting [9]); 20 µM in test [4] (setting [10]); 10 µM in test [5] (setting [11]); 10 µM in test [6] (setting [12]).
As to `O=c1[nH]cc(F)c(=O)[nH]1` [FLUOROURACIL], the IC50 in test [1] (setting [7]) worked out at 30 µM; in test [2] (setting [8]), 4 µM; in test [3] (setting [9]), 3 µM; in test [5] (setting [11]), 10 µM; in test [6] (setting [12]), 4 µM.
